Tests used:
CYP6P2 [1] = biological target: T1, CYP6P2 (Anopheles gambiae, UniProt Q8T629, V81I)
T1 sequence (Q8T629 1-507 V81I): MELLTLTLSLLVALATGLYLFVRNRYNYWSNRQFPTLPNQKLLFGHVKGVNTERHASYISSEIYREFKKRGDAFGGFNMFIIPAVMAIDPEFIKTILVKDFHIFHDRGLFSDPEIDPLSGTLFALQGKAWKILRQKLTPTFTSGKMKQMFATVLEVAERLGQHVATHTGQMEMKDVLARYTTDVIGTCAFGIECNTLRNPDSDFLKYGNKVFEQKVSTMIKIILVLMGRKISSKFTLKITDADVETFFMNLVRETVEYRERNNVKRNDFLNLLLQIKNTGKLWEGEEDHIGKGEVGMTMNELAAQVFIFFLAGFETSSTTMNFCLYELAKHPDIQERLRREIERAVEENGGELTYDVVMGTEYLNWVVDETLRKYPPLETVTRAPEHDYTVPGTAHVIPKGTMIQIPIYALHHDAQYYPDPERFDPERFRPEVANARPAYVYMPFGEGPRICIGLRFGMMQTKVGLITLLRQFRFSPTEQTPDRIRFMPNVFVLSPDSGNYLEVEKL
T1 sequence (Q7QFI3 1-587 partner): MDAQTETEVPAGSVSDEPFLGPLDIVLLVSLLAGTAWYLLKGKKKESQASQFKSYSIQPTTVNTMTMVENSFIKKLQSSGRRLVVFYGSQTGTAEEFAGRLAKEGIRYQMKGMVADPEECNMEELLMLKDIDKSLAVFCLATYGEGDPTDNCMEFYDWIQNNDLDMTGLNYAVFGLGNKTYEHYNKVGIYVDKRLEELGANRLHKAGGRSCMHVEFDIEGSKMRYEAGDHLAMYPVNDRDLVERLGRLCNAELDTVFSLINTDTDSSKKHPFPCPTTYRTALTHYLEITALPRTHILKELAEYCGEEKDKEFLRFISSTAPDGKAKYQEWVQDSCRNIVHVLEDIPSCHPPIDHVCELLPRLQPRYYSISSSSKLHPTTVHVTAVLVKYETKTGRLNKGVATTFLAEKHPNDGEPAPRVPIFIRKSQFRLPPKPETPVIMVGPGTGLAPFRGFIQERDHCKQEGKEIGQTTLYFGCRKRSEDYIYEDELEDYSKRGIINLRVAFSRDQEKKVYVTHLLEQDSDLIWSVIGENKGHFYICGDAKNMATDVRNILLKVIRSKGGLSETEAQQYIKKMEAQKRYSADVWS
T1 sequence (Q86QH4 1-128 partner): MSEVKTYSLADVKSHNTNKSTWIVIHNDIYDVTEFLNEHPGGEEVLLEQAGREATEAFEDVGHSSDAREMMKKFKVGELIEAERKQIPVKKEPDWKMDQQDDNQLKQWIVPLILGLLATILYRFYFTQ

CYP9J5 = biological target: T2, CYP9J5 (Anopheles gambiae, UniProt Q5TN57)
T2 sequence (Q5TN57 1-545): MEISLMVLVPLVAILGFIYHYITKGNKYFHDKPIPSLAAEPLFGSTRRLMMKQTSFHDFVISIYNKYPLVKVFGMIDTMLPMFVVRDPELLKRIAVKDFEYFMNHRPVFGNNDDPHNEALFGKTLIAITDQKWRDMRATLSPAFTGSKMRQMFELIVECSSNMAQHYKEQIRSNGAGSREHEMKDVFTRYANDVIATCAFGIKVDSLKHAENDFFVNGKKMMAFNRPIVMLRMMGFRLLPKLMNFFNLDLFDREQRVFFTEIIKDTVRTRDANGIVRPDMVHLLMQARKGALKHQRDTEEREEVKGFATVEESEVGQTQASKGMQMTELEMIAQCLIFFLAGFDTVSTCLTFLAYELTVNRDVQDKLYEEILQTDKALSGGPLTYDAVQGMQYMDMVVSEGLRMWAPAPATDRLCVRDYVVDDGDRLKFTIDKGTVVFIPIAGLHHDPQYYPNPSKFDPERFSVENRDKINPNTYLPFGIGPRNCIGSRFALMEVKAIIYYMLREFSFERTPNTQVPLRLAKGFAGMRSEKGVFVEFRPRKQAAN
T2 sequence (Q86QH5 1-679 partner): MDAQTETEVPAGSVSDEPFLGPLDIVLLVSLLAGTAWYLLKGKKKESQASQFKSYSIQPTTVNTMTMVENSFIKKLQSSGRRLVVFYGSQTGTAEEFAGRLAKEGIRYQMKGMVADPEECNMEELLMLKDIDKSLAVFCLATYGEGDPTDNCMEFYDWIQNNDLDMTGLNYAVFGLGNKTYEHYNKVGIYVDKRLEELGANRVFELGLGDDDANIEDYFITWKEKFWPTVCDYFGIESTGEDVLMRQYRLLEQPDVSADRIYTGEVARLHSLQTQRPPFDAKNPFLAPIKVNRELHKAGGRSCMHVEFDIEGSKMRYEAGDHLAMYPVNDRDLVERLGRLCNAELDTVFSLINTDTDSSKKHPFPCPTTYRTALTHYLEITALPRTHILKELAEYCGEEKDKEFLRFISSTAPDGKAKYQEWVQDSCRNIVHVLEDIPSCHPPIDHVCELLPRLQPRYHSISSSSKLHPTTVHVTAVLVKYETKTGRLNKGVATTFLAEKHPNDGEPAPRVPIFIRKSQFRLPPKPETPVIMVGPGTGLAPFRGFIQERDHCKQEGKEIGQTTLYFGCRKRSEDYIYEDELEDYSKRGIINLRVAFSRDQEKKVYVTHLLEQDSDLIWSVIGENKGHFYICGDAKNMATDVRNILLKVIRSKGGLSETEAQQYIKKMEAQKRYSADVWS
T2 sequence (Q86QH4 1-128 partner): T1 sequence (Q86QH4 1-128 partner)

CYP6P2 [2] = biological target: T1, CYP6P2; test: biochemical
CYP6M2 = CYP6M2 (Anopheles gambiae, UniProt Q7Q449); test: biochemical
Sequence of CYP6M2 (Q7Q449 1-499, one chain of several): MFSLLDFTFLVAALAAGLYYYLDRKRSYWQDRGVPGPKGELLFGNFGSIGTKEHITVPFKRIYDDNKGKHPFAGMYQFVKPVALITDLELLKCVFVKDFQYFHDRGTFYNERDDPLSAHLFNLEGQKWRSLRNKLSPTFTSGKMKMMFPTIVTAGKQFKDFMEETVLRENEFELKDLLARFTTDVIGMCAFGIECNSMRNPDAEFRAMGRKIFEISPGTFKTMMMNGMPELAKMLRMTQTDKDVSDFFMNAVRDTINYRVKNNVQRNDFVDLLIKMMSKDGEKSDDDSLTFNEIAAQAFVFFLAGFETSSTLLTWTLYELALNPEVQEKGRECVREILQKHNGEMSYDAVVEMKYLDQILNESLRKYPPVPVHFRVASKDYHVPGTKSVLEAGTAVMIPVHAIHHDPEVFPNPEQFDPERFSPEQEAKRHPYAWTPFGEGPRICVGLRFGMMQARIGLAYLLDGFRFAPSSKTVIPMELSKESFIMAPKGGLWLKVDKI

Structure (SMILES) | Inhibition ratio (%): reduction of PPF depletion caused by PBO (CYP6P2 [1]) [%] | Inhibition ratio (%): reduction of PPF depletion caused by PBO (CYP9J5) [%] | IC50 (CYP6P2 [2]; IC50 of DEF metabolism) [µM] | IC50 (CYP6M2) [µM] | IC50 (CYP6P2 [2]; category of inhibition of DEF metabolism) [µM] | % PPF depletion + PBO (CYP6P2 [1]; Anopheles gambiae, pH 7.4) [%] | % PPF depletion −PBO (CYP6P2 [1]; Anopheles gambiae, pH 7.4) [%] | % PPF depletion + PBO (CYP9J5; Anopheles gambiae, pH 7.4) [%]
CCCCOCCOCCOCc1cc2c(cc1CCC)OCO2 [PBO, piperonyl butoxide] | 91.0 | 99.6 | – | – | – | – | – | –
CC1(C)C(C=C(Cl)Cl)C1C(=O)OCc1cccc(Oc2ccccc2)c1 (mixture of isomers) [Permethrin, 3-phenoxybenzyl (1R,S)-cis,trans-3-(2,2-dichlorovinyl)-2,2-dimethylcyclopropanecarboxylate] | – | – | 8.61 | 8.07 | – | – | – | –
CC(COc1ccc(Oc2ccccc2)cc1)Oc1ccccn1 (stereo not shown) [PPF, pyriproxyfen] | – | – | 9.95 | 14.1 | 1 to 10 | 6.45 ± 3.22 | 58.03 ± 1.35 | 0.08 ± 0.15

Reference: publication PMC6399515 (Insect Biochemistry and Molecular Biology, 2016)
